We go through two molecules from patent US6504052B1, “Excitatory amino acid receptor modulators” (Eli Lilly and Company, priority 1999, dated 2003).

pKi: −log10 of the molar value.

This assay has as its target T1, mGluR2 (Homo sapiens, UniProt Q14416).
T1 construct: expressed in transfected cells
Nature of the assay: [3H]LY341495 binding displacement at mGluR2. The conditions noted are these: radioligand [3H]LY341495, cells expressing human mGluR subtypes, read-out: Ki for reversal of [3 H] LY341495 binding. From the text:
(D. D. Schoepp, et al., Neuropharmacol., 1996, 35, 1661-1672 and 1997, 36, 111).
(LY341495 is described in Ornstein et al., J. Med. Chem., 1998, 41, 346-357 and J. Med. Chem., 1998, 41, 358 to 378).

T1 sequence (Q14416 19-872): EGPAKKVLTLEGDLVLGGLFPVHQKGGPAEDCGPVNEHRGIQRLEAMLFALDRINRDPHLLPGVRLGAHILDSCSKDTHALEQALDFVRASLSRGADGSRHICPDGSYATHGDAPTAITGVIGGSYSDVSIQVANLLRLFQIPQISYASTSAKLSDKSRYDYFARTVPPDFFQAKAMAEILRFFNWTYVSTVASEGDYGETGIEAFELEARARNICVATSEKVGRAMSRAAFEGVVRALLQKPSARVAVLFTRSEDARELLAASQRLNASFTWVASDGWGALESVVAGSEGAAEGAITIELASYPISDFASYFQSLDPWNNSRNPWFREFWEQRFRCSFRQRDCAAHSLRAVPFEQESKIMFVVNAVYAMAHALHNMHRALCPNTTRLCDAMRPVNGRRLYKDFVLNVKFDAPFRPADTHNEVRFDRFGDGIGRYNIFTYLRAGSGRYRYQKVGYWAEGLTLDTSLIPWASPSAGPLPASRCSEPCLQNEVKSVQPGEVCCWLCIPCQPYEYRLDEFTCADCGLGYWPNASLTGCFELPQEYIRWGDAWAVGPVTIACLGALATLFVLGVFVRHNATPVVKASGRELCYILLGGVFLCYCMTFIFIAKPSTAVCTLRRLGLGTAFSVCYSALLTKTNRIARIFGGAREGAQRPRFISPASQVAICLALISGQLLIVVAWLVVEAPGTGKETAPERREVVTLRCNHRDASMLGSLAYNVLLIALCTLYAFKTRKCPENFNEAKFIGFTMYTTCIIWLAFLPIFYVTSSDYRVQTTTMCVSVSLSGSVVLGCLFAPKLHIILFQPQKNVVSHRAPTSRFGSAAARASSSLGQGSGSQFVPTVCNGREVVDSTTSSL

As for `C[C@@H]1[C@H](C(=O)O)[C@H]1[C@H](N)C(=O)O` [(2S,1′S,2′S,3′S)-2′-carboxy-3′methylcyclopropylglycine], the negative logarithm of the Ki (pKi) was 5.58.
Consider `C[C@H]1[C@H](C(=O)O)[C@H]1[C@H](N)C(=O)O` [Example 1, (2S,1′S,2′S,3′R)-2-(3′-Methyl-2′-carboxycyclopropyl)glycine], for which the negative logarithm of the Ki (pKi) was 7.00.
